Results on nine molecules are retold here after patent US6355616B1, “Derivative compounds derived from or based on bactericidal/permeability-increasing protein” (priority 1999, dated 2002).

Non-standard residues stand in square brackets, D forms with d. Residues, ends and D or L forms follow the SMILES beside them. Aun = NCCCCCCCCCCC(=O)O

For one data set, the system named is Candida albicans, SLU-1. Put plainly: 28-day comparative survival efficacy study in mice systemically infected with Candida albicans. The following applies: for improvement in mortality compared with dextrose-treated controls: mice infected iv with C. albicans SLU-1, two doses less than 5 mg/kg, initial experiments (p>0.5). In kind it is in vivo, male DBA/2 mice. As for the experimental part: Derivatized peptide-based constructs are tested for activity upon oral administration (oral activity) in a 28-day comparative survival efficacy study in mice systemically infected with Candida albicans. Specifically, male DBA/2 mice (Charles River Laboratories) six weeks of age are dosed with 7.9×10^4 Candida albicans, SLU-1 in 100 μL intravenously via the tail vein in a single dosage on day zero (0). However, other routes of administration, including intraperitoneal (ip) and subcutaneous (sc) routes may be administered. Amphotericin B will provide complete protection at 0.5 mg/kg qod (100% survival). Mortality data will be subjected to Kaplan-Meier survival analysis. All treatment groups may be considered statistically significant vs. saline at p values <0.05.
Treatment begins immediately thereafter with 400 μL oral gavage of either 0.5% dextrose, or derivative compound in 0.5% dextrose at various dosage levels (e.g., 10 mg/kg or 20 mg/kg) according to a prescribed dosing regimen (e.g. every other day for a total of eight times). Amphotericin B (Fungizone®) is administered intravenously at 0.5 mg/kg as a positive control every other day for a total of eight times. Twice-day monitoring (once daily on weekends and holidays) for mortality is performed. The animals treated with antiflngal derivative compound show improvement in mortality compared with the dextrose-treated controls, preferably statistically significant improvement (p-value of […]).

Another data set concerns Candida albicans SLU-1. Description: Radial diffusion assay. In kind it is cell-based. The following applies: 30 mm^2 area of growth inhibition, calculated by PROBIT analysis. As for the experimental part:
In the radial diffusion assay procedures, the CA-1 cultures and derivatized peptide solutions were prepared as in the broth microdilution assay procedure described above, i.e., CA-1 was grown to exponential phase in SDB. Ten (10) mL of molten underlayer agarose comprising 3% Sabouraud Dextrose broth, 1% agarose (Pharmacia, Piscataway, N.J.), 0.02% Tween 20, and 10 mM sodium phosphate at pH 7.4, was added to polystyrene tubes and maintained in a 56° C. water bath until the addition of yeast. Tubes were cooled to approximately 45° C., yeast were added to give a final concentration of 1×10^6 CFU/mL, and the tubes were mixed again by inverting. The contents were poured into leveled, square petri dishes and distributed evenly. […] A series of wells were punched into the hardened agarose using a sterile 3 mm punch attached to a vacuum apparatus to achieve a uniform, 3 mm diameter well.
Derivatized peptide sequences to be assayed were 2-fold serially diluted in 10 mM Dulbecco's PBS (D-PBS) starting from a concentration of approximately […]. Five μL of each dilution were added to each well and the plates were incubated at 37° C. for 3 hours to allow for complete diffusion of the test compounds. An overlayer of 10 mL of molten agarose comprising 6% Sabouraud Dextrose broth, 1% agarose, and 10 mM sodium phosphate, pH 7.4, (at approximately 45° C.) was then added and plates were incubated overnight at 37° C. Following this overnight incubation, a dilute Coomassie solution was poured into the plates and allowed to stain for 24 hours to enhance visualization of the zones.
Clear zones of growth inhibition around each well were measured with calipers. The actual area of growth inhibition (mm^2) was calculated by subtracting the area of the well. Table II below sets out the results of the radial diffusion assays for a series of tested peptide-based constructs in terms of the number of picomoles (pmol) of compound required to establish a 30 mm^2 area of growth inhibition of Candida albicans SLU-1 calculated by PROBIT analysis (e.g., calculated from regression of the linear portion of log-concentration dose-response curve, log pmol/well vs. net area of inhibition).

The test system of data set [1] is Candida albicans designated CA-1, Strain SLU-1. In kind it is cell-based. The following applies: designated CA-1, Strain SLU-1, 24 h. On the procedure:
In each broth microdilution assay screening procedure, a colony of Candida albicans designated CA-1, Strain SLU-1 that was received from the laboratories of G. Matuschak and A. Lechner, St. Louis University Hospital, St. Louis, Mo., where the strain was maintained, was inoculated into a tube containing 5 mL Sabouraud Dextrose broth (2% dextrose, 1% neopeptone) and incubated at 37° C. with shaking. The overnight culture was diluted 1:50 into 5 ml of fresh broth and incubated for 3 hours at 37° C. to exponential phase growth. Organisms were pelleted by centrifugation in a Beckman J-6M centrifuge for 5 minutes at 3000 rpm (1500×g) and the pellets were resuspended in 5 mL phosphate buffered saline (PBS) and the optical density (OD) at 570 nm was determined. On the basis of the determination that one OD unit equals 3×10^7 colony forming units/mL (CFU/mL), yeast cells were diluted to 5×10^3 CFU/mL in Sabouraud Dextrose broth (SBD).
Derivatized peptide sequences based on Domain III of BPI to be screened which were originally constituted in Dulbecco's-PBS, were two-fold serially diluted in SDB starting from a concentration of 128 μg/mL. Equal volumes (100 μL) of yeast suspension as prepared above and derivatized peptide solution were added to wells of a 96-well sterile, flat bottom, non-pyrogenic tissue culture microtiter plate (Costar, Cambridge, Mass.) to reach a final volume of 200 μL/well. The plate was incubated on a shaker at 37° C. for 24 hours. All assays were performed in triplicate. Following the incubation period, plates were read in an ELISA plate reader at 595 nm wavelength to determine the minimum inhibitory concentration (MIC), i.e., the lowest concentration required to reduce the optical density at 595 nm to below 0.1 OD.

In the next data set the test system is gram-negative bacteria. The following applies: broad range of gram-negative bacteria; concentrations as low as; cited from earlier work.
The test system of data set [2] is Staphylococcus aureus (four strains), Staphylococcus epidermidis, Streptococcus faecalis, Bacillus subtilis, Micrococcus lysodeikticus, and Listeria …. The following applies: 160 μg/ml; pH of either 7.0 or 5.5; cited from earlier work.
Data set [3] deals with Candida albicans and Candida parapsilosis. The following applies: 10^−6 M; pH 7.0 or 5.5; cited from earlier work.
In data set [4] the test system is human, rabbit and sheep red blood cells and several human tumor cell lines. The following applies: cited from earlier work.

For the molecule `C[C@@H]1[C@H](O)[C@@H](C)/C=C/C=C/C=C/C=C/C=C/C=C/C=C/[C@H](O[C@@H]2O[C@H](C)[C@@H](O)[C@H](N)[C@@H]2O)C[C@@H]2O[C@](O)(C[C@@H](O)C[C@@H](O)[C@H](O)CC[C@@H](O)C[C@@H](O)CC(=O)O[C@H]1C)C[C@H](O)[C@H]2C(=O)O` [Amphotericin B, reference compound], the survival in the data set with Candida albicans, SLU-1 (0.5 mg/kg qod, positive control, 'will provide complete protection') is listed as 100%.

As for `CC[C@@H](C)[C@@H](NC(=O)[C@@H](CC(C)C)NC(=O)[C@@H](Cc1c[nH]c2ccccc12)NC(=O)[C@@H](CCCCN)NC(=O)CCCCCCCCCCN)C(=O)N[C@H](CCC(N)=O)C(=O)N[C@H](CC(C)C)C(=O)N[C@H](Cc1ccccc1)C(=O)N[C@H](Cc1c[nH]cn1)C(=O)N[C@H](CCCCN)C(=O)N[C@H](CCCCN)C(N)=O` [XMP.496] (H-[Aun][dK][dW][dL][dI][dQ][dL][dF][dH][dK][dK]-NH2), the “Radial Diffusion (pmol to achieve 30 mm^2 zone C. albicans SLU1)” value (from here on “Radial Diffusion”) in the data set with Candida albicans SLU-1 is on record as 434 pmol. In addition, in data set [1], the “Broth Microdilution (MIC values in μg/mL C. albicans SLU1)” value (shortened to “Broth Microdilution”) amounted to 1 µg/mL. Moreover, the “improvement in mortality compared with dextrose-treated controls” value with Candida albicans, SLU-1 was “did not exhibit statistically significant improvement”.

In the case of “XMP.503: R1 = pyridine carbonyl, R2 = R3 = H (KWLIQLFHKK; XMP.503; Position 1 is derivatized at the alpha-amino with: pyridine carbonyl; Positions 1-10 are D-Amino Acids; AMIDATION=The C-terminus is Amidated)”, in the data set with Candida albicans, SLU-1, the “improvement in mortality compared with dextrose-treated controls” value is “did not exhibit statistically significant improvement”.

Consider `CC[C@@H](C)[C@@H](NC(=O)[C@@H](CC(C)C)NC(=O)[C@@H](Cc1c[nH]c2ccccc12)NC(=O)[C@@H](CCCCN)NC(=O)CCCC[C@@H]1SC[C@@H]2NC(=O)N[C@@H]21)C(=O)N[C@H](CCC(N)=O)C(=O)N[C@H](CC(C)C)C(=O)N[C@H](Cc1ccccc1)C(=O)N[C@H](Cc1c[nH]cn1)C(=O)N[C@H](CCCCN)C(=O)N[C@H](CCCCN)C(N)=O` [XMP.519], for which, in the data set with Candida albicans SLU-1, the “Radial Diffusion” value is listed as 170 pmol. In data set [1], the “Broth Microdilution” value was determined as 1 µg/mL. Further, in the data set with Candida albicans, SLU-1, the “improvement in mortality compared with dextrose-treated controls” value is reported as “did not exhibit statistically significant improvement”.

As for `CC[C@@H](C)[C@@H](NC(=O)[C@@H](CC(C)C)NC(=O)[C@@H](Cc1c[nH]c2ccccc12)NC(=O)[C@@H](CCCCN)NC(=O)c1ccc2c(c1)-c1ccccc1-2)C(=O)N[C@H](CCC(N)=O)C(=O)N[C@H](CC(C)C)C(=O)N[C@H](Cc1ccccc1)C(=O)N[C@H](Cc1c[nH]cn1)C(=O)N[C@H](CCCCN)C(=O)N[C@H](CCCCN)C(N)=O` [XMP.534], in the data set on Candida albicans SLU-1, the “Radial Diffusion” value is >3,371 pmol. In addition, the “Broth Microdilution” value in data set [1] is 4 µg/mL. Moreover, in the data set on Candida albicans, SLU-1, the “improvement in mortality compared with dextrose-treated controls” value is given as “did not exhibit statistically significant improvement”.

As for `CC[C@@H](C)[C@@H](NC(=O)[C@@H](CC(C)C)NC(=O)[C@@H](Cc1c[nH]c2ccccc12)NC(=O)[C@@H](CCCCN)NC(=O)c1ccc2ccccc2n1)C(=O)N[C@H](CCC(N)=O)C(=O)N[C@H](CC(C)C)C(=O)N[C@H](Cc1ccccc1)C(=O)N[C@H](Cc1c[nH]cn1)C(=O)N[C@H](CCCCN)C(=O)N[C@H](CCCCN)C(N)=O` [XMP.596], the “Radial Diffusion” value in the data set on Candida albicans SLU-1 was 3,140 pmol. Also, the “Broth Microdilution” value in data set [1] came to 2 µg/mL.

Regarding `CC[C@@H](C)[C@@H](NC(=O)[C@@H](CC(C)C)NC(=O)[C@@H](Cc1c[nH]c2ccccc12)NC(=O)[C@@H](CCCCN)NC(=O)c1nccc2ccccc12)C(=O)N[C@H](CCC(N)=O)C(=O)N[C@H](CC(C)C)C(=O)N[C@H](Cc1ccccc1)C(=O)N[C@H](Cc1c[nH]cn1)C(=O)N[C@H](CCCCN)C(=O)N[C@H](CCCCN)C(N)=O` [XMP.546], the “Radial Diffusion” value in the data set with Candida albicans SLU-1 is reported as >3,371 pmol. Moreover, in data set [1], the “Broth Microdilution” value is over 64 µg/mL.

Turning to `CC[C@@H](C)[C@@H](NC(=O)[C@@H](CC(C)C)NC(=O)[C@@H](Cc1c[nH]c2ccccc12)NC(=O)[C@@H](CCCCN)NC(=O)c1c[nH]cn1)C(=O)N[C@H](CCC(N)=O)C(=O)N[C@H](CC(C)C)C(=O)N[C@H](Cc1ccccc1)C(=O)N[C@H](Cc1c[nH]cn1)C(=O)N[C@H](CCCCN)C(=O)N[C@H](CCCCN)C(N)=O` [XMP.500], the “improvement in mortality compared with dextrose-treated controls” value with Candida albicans, SLU-1 was “did not exhibit statistically significant improvement”.

B1: BPI: protein isolated from the granules of mammalian polymorphonuclear leukocytes (protein, UniProt P17213 32-487, looked up)
Bactericidal …: VNPGVVVRISQKGLDYASQQGTAALQKELKRIKIPDYSDSFKIKHLGKGHYSFYSMDIREFQLPSSQISMVPNVGLKFSISNANIKISGKWKAQKRFLKMSGNFDLSIEGMSISADLKLGSNPTSGKPTITCSSCSSHINSVHVHISKSKVGWLIQLFHKKIESALRNKMNSQVCEKVTNSVSSELQPYFQTLPVMTKIDSVAGINYGLVAPPATTAETLDVQMKGEFYSENHHNPPPFAPPVMEFPAAHDRMVYLGLSDYFFNTAGLVYQEAGVLKMTLRDDMIPKESKFRLTTKFFGTFLPEVAKKFPNMKIQIHVSASTPPHLSVQPTGLTFYPAVDVQAFAVLPNSSLASLFLIGMHTTGSMEVSAESNRLVGELKLDRLLLELKHSNIGPFPVELLQDIMNYIVPILVLPRVNEKLQKGFPLPTPARVQLYNVVLQPHQNFLLFGADVVYK
Regarding B1, the “concentration exhibiting anti-bacterial activity” value in the data set on gram-negative bacteria is 10^−8 to 10^−9 M. The “toxic effect on gram-positive organisms” value in data set [2] was “no toxic effect”. For the same molecule, in data set [3], the “toxic effect on fungi” value was “no toxic effect”. Further, the “toxicity to higher eukaryotic cells” value in data set [4] is “non-toxic”.
